From US20240398768A1, “METHODS OF TREATING SOLID TUMOR USING HETEROAROMATIC MACROCYCLIC ETHER COMPOUNDS” (Nuvalent, Inc., priority 2021, published 2024)
Like-named read-outs stand apart in the source and are kept apart here.

Columns and labels:
CYP2C9 = CYP2C9 (Homo sapiens, UniProt P11712); test: CYP substrate assessment; type: in vitro ADME
[1] = Phase 1/2 clinical study: pharmacokinetics; type: in vivo, human; conditions: for half-life / AUC(0-inf) / Cmax / Vd/F / Tmax: human, plasma, oral; for half-life: read-out: t1/2 (converted); for Vd/F: read-out: Vz/F; for Tmax: median
Description: Each cycle of treatment is 28 days.

[2] = Cycle 1 Day 1, 25 mg QD, geometric mean
[3] = Cycle 1 Day 1, 50 mg QD, geometric mean
[4] = Cycle 1 Day 1, 75 mg QD, geometric mean
[5] = Cycle 1 Day 1, 100 mg QD, geometric mean
[6] = Cycle 1 Day 1, 125 mg QD, geometric mean
[7] = Cycle 1 Day 15, 25 mg QD, geometric mean
[8] = Cycle 1 Day 15, 50 mg QD, geometric mean
[9] = Cycle 1 Day 15, 75 mg QD, geometric mean
[10] = Cycle 1 Day 15, 100 mg QD, geometric mean
[11] = Cycle 1 Day 15, 125 mg QD, geometric mean
[12] = Cycle 1 Day 15, 125 mg QD, single value
[13] = 25 mg, Cycle 1 Day 1, 25 mg QD, geometric mean
[14] = 25 mg, Cycle 1 Day 15, 25 mg QD, geometric mean
[15] = 50 mg, Cycle 1 Day 1, 50 mg QD, geometric mean
[16] = 50 mg, Cycle 1 Day 15, 50 mg QD, geometric mean

Sequence of CYP2C9 (P11712 whole entry): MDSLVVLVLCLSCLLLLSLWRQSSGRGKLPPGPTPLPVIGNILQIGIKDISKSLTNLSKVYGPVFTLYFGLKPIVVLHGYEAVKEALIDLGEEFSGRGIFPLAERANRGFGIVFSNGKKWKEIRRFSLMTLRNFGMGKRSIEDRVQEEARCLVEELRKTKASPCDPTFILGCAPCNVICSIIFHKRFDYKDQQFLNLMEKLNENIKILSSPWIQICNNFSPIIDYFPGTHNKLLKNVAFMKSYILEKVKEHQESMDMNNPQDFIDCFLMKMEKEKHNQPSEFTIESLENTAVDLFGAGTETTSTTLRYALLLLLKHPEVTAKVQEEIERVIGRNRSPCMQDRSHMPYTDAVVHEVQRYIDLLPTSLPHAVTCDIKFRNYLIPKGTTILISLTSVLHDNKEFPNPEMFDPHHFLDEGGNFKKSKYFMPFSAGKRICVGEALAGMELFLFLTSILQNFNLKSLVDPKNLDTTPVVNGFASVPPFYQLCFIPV

**Q.** What does the source list for `CCn1ncc2c1-c1cnc(N)c(c1)O[C@H](C)c1cc(F)ccc1-c1nn(C)nc1C2` [Compound 1, (19R)-3-ethyl-16-fluoro-10,19-dimethyl-20-oxa-3,4,9,10,11,23-hexaazapentacyclo [19.3.1.0^2,^6.0^8,^12.0^13,^18]pentacosa-1 (24),2 (6),4,8,11,13,15,17,21 (25),22-decaen-22-amine]?
**A.** substrate for CYP2C9 (CYP2C9): not considered a substrate; PK exposure ([1]; 25-100 mg once daily): dose-dependent exposure; AUCinf—DN [1, 2]: 78.6 ng·h/mL/mg; AUClast—DN [1, 2]: 54.4 ng·h/mL/mg; CL/F [1, 2]: 12.7 L/h; Cmax—DN [1, 2]: 8.0 ng/mL/mg; AUCinf—DN [1, 3]: 81.8 ng·h/mL/mg; AUClast—DN [1, 3]: 61.8 ng·h/mL/mg; CL/F [1, 3]: 12.2 L/h; Cmax—DN [1, 3]: 6.8 ng/mL/mg; AUCinf—DN [1, 4]: 79.1 ng·h/mL/mg; AUClast—DN [1, 4]: 53.4 ng·h/mL/mg; CL/F [1, 4]: 12.6 L/h; Cmax—DN [1, 4]: 8.6 ng/mL/mg; AUCinf—DN [1, 5]: 86.9 ng·h/mL/mg; AUClast—DN [1, 5]: 57.2 ng·h/mL/mg; CL/F [1, 5]: 11.5 L/h; Cmax—DN [1, 5]: 8.0 ng/mL/mg; AUCinf—DN [1, 6]: 47.8 ng·h/mL/mg; AUClast—DN [1, 6]: 40.1 ng·h/mL/mg; CL/F [1, 6]: 20.9 L/h; Cmax—DN [1, 6]: 7.5 ng/mL/mg; Rac ([1]; Cycle 1 Day 15, 25 mg QD, arithmetic mean): 1.8; AUCinf—DN [1, 7]: 196.0 ng·h/mL/mg; AUCtau—DN [1, 7]: 111.4 ng·h/mL/mg; CLss/F [1, 7]: 8.8 L/h; Cmax—DN [1, 7]: 10.0 ng/mL/mg; Rac ([1]; Cycle 1 Day 15, 50 mg QD, arithmetic mean): 1.6; AUCinf—DN [1, 8]: 121.5 ng·h/mL/mg; AUCtau—DN [1, 8]: 86.6 ng·h/mL/mg; CLss/F [1, 8]: 11.5 L/h; Cmax—DN [1, 8]: 13.7 ng/mL/mg; Rac ([1]; Cycle 1 Day 15, 75 mg QD, arithmetic mean): 2.0; AUCinf—DN [1, 9]: 180.3 ng·h/mL/mg; AUCtau—DN [1, 9]: 93.5 ng·h/mL/mg; CLss/F [1, 9]: 10.7 L/h; Cmax—DN [1, 9]: 9.7 ng/mL/mg; Rac ([1]; Cycle 1 Day 15, 100 mg QD, arithmetic mean): 2.1; AUCinf—DN [1, 10]: 110.4 ng·h/mL/mg; AUCtau—DN [1, 10]: 63.9 ng·h/mL/mg; CLss/F [1, 10]: 15.6 L/h; Cmax—DN [1, 10]: 8.2 ng/mL/mg; AUCtau—DN [1, 11]: 52.8 ng·h/mL/mg; CLss/F [1, 11]: 18.9 L/h; Cmax—DN [1, 11]: 5.9 ng/mL/mg; AUCinf—DN [1, 12]: 60.0 ng·h/mL/mg; Rac [1, 12]: 1.5; exposure in clinical trial versus target levels that provide regression in preclinical models ([1]; data as of Sep. 13, 2022): exceeded the target levels; half-life ([1]; 25 mg, Cycle 1 Day 1, 25 mg QD, arithmetic mean): 15.5 h; AUC(0-inf) [1, 13]: 1960 ng·h/mL; Cmax [1, 13]: 199 ng/mL; Vd/F [1, 13]: 270 L; Tmax ([1]; 25 mg, Cycle 1 Day 1, 25 mg QD): 1 h; half-life ([1]; 25 mg, Cycle 1 Day 15, 25 mg QD, arithmetic mean): 20.3 h; AUC(0-inf) [1, 14]: 4900 ng·h/mL; Cmax [1, 14]: 250 ng/mL; Vd/F [1, 14]: 243 L; Tmax ([1]; 25 mg, Cycle 1 Day 15, 25 mg QD): 1 h; half-life ([1]; 50 mg, Cycle 1 Day 1, 50 mg QD, arithmetic mean): 12 h; AUC(0-inf) [1, 15]: 4090 ng·h/mL; Cmax [1, 15]: 338 ng/mL; Vd/F [1, 15]: 200 L; Tmax ([1]; 50 mg, Cycle 1 Day 1, 50 mg QD): 1 h; half-life ([1]; 50 mg, Cycle 1 Day 15, 50 mg QD, arithmetic mean): 16 h; AUC(0-inf) [1, 16]: 6070 ng·h/mL; Cmax [1, 16]: 687 ng/mL
